pIC50: −log10 of the molar value. Oligonucleotides are written 5' to 3', each unit as a sugar letter and its base; * is a phosphorothioate linkage, no mark a phosphodiester; rarer units and linkages stand in square brackets, end groups in braces. Plain capitals give the bases only. e = 2'-O-(2-methoxyethyl) (MOE); k = constrained ethyl (cEt); [5mC] = 5-methylcytosine; d = 2'-deoxy (DNA)
What was measured:
[1] = system: prostate-specific antigen (PSA) mRNA; test: PSA mRNA levels in LMR20 cells; type: cell-based, human; settings: LMR20 cells; for PSA mRNA levels (% baseline value) after treatment with DHT: DHT 10 nM 72 hrs; for PSA mRNA levels (% baseline value) after treatment with R1881: R1881 10 nM 72 hrs; for PSA mRNA levels (% baseline value) of cells without AR agonist treatment: no AR agonist
Experimental: LMR20 cells were plated at 1,500 cells per well in phenol red-free medium with CSS. […] Results are presented in Tables 43-45 as mRNA levels expressed as a percentage of the baseline values. mRNA levels may be lowered or increased after treatment.

[2] = system: AR mRNA; test: Dose-dependent antisense inhibition of human AR in HuVEC cells (electroporation, qRT-PCR RTS3559, IC50); type: cell-based; settings: HuVEC, ~16 h, Table 8
Outline: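 HuVEC cells dosed with antisense oligonucleotides by electroporation and treated approximately 16 hours. AR mRNA quantified by real-time qPCR with primer probe set RTS3559 and normalised to total RNA by RIBOGREEN; IC50 from dose-response.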

[3] = system: AR mRNA; test: Antisense inhibition of human AR in HuVEC cells, single concentration (electroporation, qRT-PCR RTS3559); type: cell-based; settings: 250 nM ASO, ~24 h, Table 7
Outline: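 HuVEC cells electroporated with antisense oligonucleotides at a single concentration. AR mRNA quantified by qRT-PCR using human primer-probe set RTS3559 and normalised to total RNA content by RIBOGREEN.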

[4] = system: AR mRNA; test: AR mRNA in LnCaP cells by free uptake (hAR_LTS00943); type: cell-based, human; settings: 24 hrs
Experimental: Cells were plated at a concentration of 4,000 cells/well in 96-well plates. ISIS oligonucleotides, specified in Table 68, were added individually at 0.02 μM, 0.10 μM, 0.50 μM, 2.50 μM, or 10.00 μM. After an incubation period of 24 hrs, mRNA levels were measured using primer probe set hAR_LTS00943.

[5] = system: AR mRNA; test: AR mRNA levels in LMR20 cells (with/without DHT or R1881); type: cell-based, human; settings: LMR20 cells; for AR mRNA levels (% baseline value) after treatment with DHT: DHT 10 nM 72 hrs; for AR mRNA levels (% baseline value) after treatment with R1881: R1881 10 nM 72 hrs; for AR mRNA levels (% baseline value) of cells without AR agonist treatment: no AR agonist
Experimental: (§1) LMR20 cells were plated at 1,500 cells per well in phenol red-free medium with CSS.

[6] = system: TMPRSS2 mRNA; test: TMPRSS2 mRNA levels in LMR20 cells; type: cell-based, human; settings: LMR20 cells; for TMPRSS2 mRNA levels (% baseline value) after treatment with DHT: DHT 10 nM 72 hrs; for TMPRSS2 mRNA levels (% baseline value) after treatment with R1881: R1881 10 nM 72 hrs; for TMPRSS2 mRNA levels (% baseline value) of cells without AR agonist treatment: no AR agonist
Experimental: as §1

[7] = system: AR mRNA; test: AR mRNA in liver, heart, skeletal muscle, kidney, prostate of cynomolgus monkeys; type: in vivo; settings: cynomolgus monkey, 40 mg/kg subcutaneously
Experimental: Cynomolgus monkeys were treated with ISIS antisense oligonucleotides selected from studies described above. Antisense oligonucleotide efficacy and tolerability were evaluated. The human antisense oligonucleotides tested are cross-reactive with the rhesus genomic sequence (GENBANK Accession No. NW_001218131.1 truncated from nucleotides 134001 to 308000 and designated herein as SEQ ID NO: 189). The target start site and target region of each oligonucleotide to SEQ ID NO: 189, as well as the details of their chemistry and sequence, is presented in Table 133.
RNA was extracted from liver, heart, skeletal muscle, kidney, and prostate tissues for real-time PCR analysis of AR using primer probe set RTS3559. The results were normalized to RIBOGREEN®. Results are presented as percent inhibition of AR mRNA, relative to PBS control.

Substance: 560131 (antisense kT*kT*kG*dA*dT*dT*dT*dA*dA*dT*dG*dG*kT*kT*kG*e[5mC]) [compound 560131]
- PSA mRNA levels (% baseline value) after treatment with DHT ([1]; ASO 0.04 μM): 74 % baseline value
- PSA mRNA levels (% baseline value) after treatment with DHT ([1]; ASO 0.20 μM): 61 % baseline value
- PSA mRNA levels (% baseline value) after treatment with DHT ([1]; ASO 1.0 μM): 35 % baseline value
- PSA mRNA levels (% baseline value) after treatment with DHT ([1]; ASO 5.0 μM): 35 % baseline value
- PSA mRNA levels (% baseline value) after treatment with R1881 ([1]; ASO 0.04 μM): 92 % baseline value
- PSA mRNA levels (% baseline value) after treatment with R1881 ([1]; ASO 0.20 μM): 77 % baseline value
- PSA mRNA levels (% baseline value) after treatment with R1881 ([1]; ASO 1.0 μM): 44 % baseline value
- PSA mRNA levels (% baseline value) after treatment with R1881 ([1]; ASO 5.0 μM): 35 % baseline value
- PSA mRNA levels (% baseline value) of cells without AR agonist treatment ([1]; ASO 0.04 μM): 113 % baseline value
- PSA mRNA levels (% baseline value) of cells without AR agonist treatment ([1]; ASO 0.20 μM): 83 % baseline value
- PSA mRNA levels (% baseline value) of cells without AR agonist treatment ([1]; ASO 1.0 μM): 75 % baseline value
- PSA mRNA levels (% baseline value) of cells without AR agonist treatment ([1]; ASO 5.0 μM): 71 % baseline value
- percent inhibition of AR ([2]; 31.25 nM): 16%
- percent inhibition of AR ([2]; 62.5 nM): 48%
- percent inhibition of AR ([2]; 125.0 nM): 65%
- percent inhibition of AR ([2]; 500.0 nM): 89%
- percent inhibition of AR ([2]; 1000.0 nM): 97%
- pIC50 [2]: 7.05
- % inhibition [3]: 74%
- Percent inhibition of AR mRNA ([4]; 0.02 μM): 0%
- Percent inhibition of AR mRNA ([4]; 0.1 μM): 0%
- Percent inhibition of AR mRNA ([4]; 0.5 μM): 13%
- Percent inhibition of AR mRNA ([4]; 10 μM): 57%
- AR mRNA levels (% baseline value) after treatment with DHT ([5]; ASO 0.04 μM): 89 % baseline value
- AR mRNA levels (% baseline value) after treatment with DHT ([5]; ASO 0.20 μM): 55 % baseline value
- AR mRNA levels (% baseline value) after treatment with DHT ([5]; ASO 1.0 μM): 25 % baseline value
- AR mRNA levels (% baseline value) after treatment with DHT ([5]; ASO 5.0 μM): 20 % baseline value
- AR mRNA levels (% baseline value) after treatment with R1881 ([5]; ASO 0.04 μM): 87 % baseline value
- AR mRNA levels (% baseline value) after treatment with R1881 ([5]; ASO 0.20 μM): 65 % baseline value
- AR mRNA levels (% baseline value) after treatment with R1881 ([5]; ASO 1.0 μM): 30 % baseline value
- AR mRNA levels (% baseline value) after treatment with R1881 ([5]; ASO 5.0 μM): 26 % baseline value
- AR mRNA levels (% baseline value) of cells without AR agonist treatment ([5]; ASO 0.04 μM): 107 % baseline value
- AR mRNA levels (% baseline value) of cells without AR agonist treatment ([5]; ASO 0.20 μM): 74 % baseline value
- AR mRNA levels (% baseline value) of cells without AR agonist treatment ([5]; ASO 1.0 μM): 29 % baseline value
- AR mRNA levels (% baseline value) of cells without AR agonist treatment ([5]; ASO 5.0 μM): 17 % baseline value
- TMPRSS2 mRNA levels (% baseline value) after treatment with DHT ([6]; ASO 0.04 μM): 112 % baseline value
- TMPRSS2 mRNA levels (% baseline value) after treatment with DHT ([6]; ASO 0.20 μM): 108 % baseline value
- TMPRSS2 mRNA levels (% baseline value) after treatment with DHT ([6]; ASO 1.0 μM): 93 % baseline value
- TMPRSS2 mRNA levels (% baseline value) after treatment with DHT ([6]; ASO 5.0 μM): 71 % baseline value
- TMPRSS2 mRNA levels (% baseline value) after treatment with R1881 ([6]; ASO 0.04 μM): 132 % baseline value
- TMPRSS2 mRNA levels (% baseline value) after treatment with R1881 ([6]; ASO 0.20 μM): 117 % baseline value
- TMPRSS2 mRNA levels (% baseline value) after treatment with R1881 ([6]; ASO 1.0 μM): 88 % baseline value
- TMPRSS2 mRNA levels (% baseline value) after treatment with R1881 ([6]; ASO 5.0 μM): 76 % baseline value
- TMPRSS2 mRNA levels (% baseline value) of cells without AR agonist treatment ([6]; ASO 0.04 μM): 92 % baseline value
- TMPRSS2 mRNA levels (% baseline value) of cells without AR agonist treatment ([6]; ASO 0.20 μM): 67 % baseline value
- TMPRSS2 mRNA levels (% baseline value) of cells without AR agonist treatment ([6]; ASO 1.0 μM): 52 % baseline value
- TMPRSS2 mRNA levels (% baseline value) of cells without AR agonist treatment ([6]; ASO 5.0 μM): 45 % baseline value
- Percent Inhibition of AR mRNA relative to the PBS control, Heart ([7]; weeks 1 to 6, Heart): 32%
- Percent Inhibition of AR mRNA relative to the PBS control, Kidney ([7]; weeks 1 to 6, Kidney): 19%
- Percent Inhibition of AR mRNA relative to the PBS control, Liver ([7]; weeks 1 to 6, Liver): 65%
- Percent Inhibition of AR mRNA relative to the PBS control, Prostate ([7]; weeks 1 to 6, Prostate): 27%
- Percent Inhibition of AR mRNA relative to the PBS control, Skeletal Muscle ([7]; weeks 1 to 6, Skeletal Muscle): 30%

Reference: patent USRE48461E1, “Modulation of androgen receptor expression” (Ionis Pharmaceuticals, Inc., priority 2012, dated 2021)
